Tested on: common waterhemp, Sensitive "WUS" Population
Test: Greenhouse dose-response, effective dose on atrazine-sensitive waterhemp
Assay type: in vivo, Amaranthus tuberculatus
Conditions: 13 days after treatment, visual scale 0-100

CCNc1nc(Cl)nc(NC(C)C)n1 [Atrazine (480 g/L FL), Atrazine]
ED 20 Estimate: 11.127 g ai/ha
ED 80 Estimate: 39.353 g ai/ha

Reference: patent publication US20250248402A1, “HERBICIDAL COMPOSITIONS AND METHODS FOR CONTROLLING WEEDS” (UPL Mauritius Limited, priority 2024, published 2025)
